Experimental data taken from patent publication US20260001888A1, “PYRAZOLOPYRIMIDINE PDE9 INHIBITORS” (Merck Sharp & Dohme LLC, priority 2018, published 2026).

Target: Human PDE9 (PDE9A2) (Homo sapiens (Human), UniProt O76083)
Assay: PDE9 IMAP fluorescence polarization (FP) inhibition assay
Format: biochemical
Conditions: apparent inhibition constant; human PDE9A2, FAM-cGMP substrate 50 nM, room temperature
Summary of the method: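 N-terminal GST-tagged full-length PDE9A2 membrane prep (0.5 ng/ml final) preincubated 30 min with compound at room temperature, then 50 nM FAM-cGMP added for 60 min; IMAP binding reagent stops reaction, FP read after 1 h. Controls: known PDE9 inhibitor (100%), 1% DMSO (0%). KI from four-parameter fit.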

Chain of Human PDE9 (PDE9A2) (O76083 other isoform, or with tags, fused parts or gaps): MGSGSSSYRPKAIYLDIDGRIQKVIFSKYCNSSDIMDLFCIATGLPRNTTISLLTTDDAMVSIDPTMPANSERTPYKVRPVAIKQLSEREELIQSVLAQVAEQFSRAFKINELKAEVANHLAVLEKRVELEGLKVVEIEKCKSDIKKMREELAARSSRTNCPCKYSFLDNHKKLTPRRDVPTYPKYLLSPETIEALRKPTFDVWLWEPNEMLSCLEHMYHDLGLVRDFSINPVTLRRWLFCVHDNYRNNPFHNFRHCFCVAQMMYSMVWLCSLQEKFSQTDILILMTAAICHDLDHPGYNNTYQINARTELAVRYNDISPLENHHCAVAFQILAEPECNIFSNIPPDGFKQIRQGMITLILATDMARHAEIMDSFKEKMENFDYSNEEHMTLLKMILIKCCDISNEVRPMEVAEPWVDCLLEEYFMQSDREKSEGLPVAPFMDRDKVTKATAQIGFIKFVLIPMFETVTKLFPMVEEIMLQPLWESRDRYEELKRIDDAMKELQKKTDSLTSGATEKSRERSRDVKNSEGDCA

| Ki [µM] | SMILES |
| --- | --- |
| 0.0203 | CC(c1ccc(C(F)(F)F)nc1)n1nc(C#N)c2c(=O)[nH]c(N(C)C(c3ncccn3)C3CC3)nc21 (single isomer, unassigned) [Example 28, 6-[[cyclopropyl(pyrimidin-2-yl)methyl]-methyl-amino]-4-oxo-1-[1-[6-(trifluoromethyl)-3-pyridyl]ethyl]-5H-pyrazolo[3,4-d]pyrimidine-3-carbonitrile] |
| 0.0147 | CCC(c1ncc(F)cn1)N(C)c1nc2c(c(C#N)nn2C(C)c2ccc(C3CC3)nc2)c(=O)[nH]1 (single isomer, unassigned) [Example 63, 1-[1-(6-cyclopropyl-3-pyridyl)ethyl]-6-[1-(5-fluoropyrimidin-2-yl)propyl-methyl-amino]-4-oxo-5H-pyrazolo[3,4-d]pyrimidine-3-carbonitrile] |
| 0.0149 | CCC(c1ncc(F)cn1)N(C)c1nc2c(c(C#N)nn2C(C)c2ccc(C3CC3)cc2)c(=O)[nH]1 (single isomer, unassigned) [Example 69, 1-[1-(4-cyclopropylphenyl)ethyl]-6-[1-(5-fluoropyrimidin-2-yl)propyl-methyl-amino]-4-oxo-5H-pyrazolo[3,4-d]pyrimidine-3-carbonitrile] |
| 0.124 | CC(c1ccc(C(F)(F)F)nc1)n1nc(C#N)c2c(=O)[nH]c(N3CCCC3c3ncccn3)nc21 (single isomer, unassigned) [Example 55, 4-oxo-6-(2-pyrimidin-2-ylpyrrolidin-1-yl)-1-[1-[6-(trifluoromethyl)-3-pyridyl]ethyl]-5H-pyrazolo[3,4-d]pyrimidine-3-carbonitrile] |
